{
  "source": "ChEMBL document CHEMBL1212888",
  "about": "“NMR spectroscopy and computational analysis of interaction between Serratia marcescens chitinase B and a dipeptide derived from natural-product cyclopentapeptide chitinase inhibitor argifin” (Bioorg Med Chem, 2010)",
  "target": "T1, Chitinase B (Serratia marcescens, UniProt P11797)",
  "T1 sequence (P11797 whole entry)": "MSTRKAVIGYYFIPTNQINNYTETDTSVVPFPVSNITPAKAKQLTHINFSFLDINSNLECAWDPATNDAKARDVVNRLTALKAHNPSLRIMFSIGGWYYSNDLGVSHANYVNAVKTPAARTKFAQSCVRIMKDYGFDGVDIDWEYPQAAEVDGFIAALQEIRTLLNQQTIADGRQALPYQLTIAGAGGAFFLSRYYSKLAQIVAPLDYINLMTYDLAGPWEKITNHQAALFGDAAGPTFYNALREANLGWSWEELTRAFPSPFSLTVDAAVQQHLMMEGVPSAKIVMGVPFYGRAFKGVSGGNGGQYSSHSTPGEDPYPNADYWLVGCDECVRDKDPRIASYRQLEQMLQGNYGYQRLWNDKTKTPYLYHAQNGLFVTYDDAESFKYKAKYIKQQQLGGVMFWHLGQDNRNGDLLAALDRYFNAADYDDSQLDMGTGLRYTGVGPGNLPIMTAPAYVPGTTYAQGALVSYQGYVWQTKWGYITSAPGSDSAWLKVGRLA",
  "test": "Inhibition of Serratia marcescens chitinase B",
  "data": [
    {"smiles": "CNC(=O)NC(=N)NCCC[C@@H]1NC(=O)[C@@H](C)NC(=O)C[C@@H](C(=O)O)NC(=O)C[C@@H](C(=O)O)NC(=O)[C@H](Cc2ccccc2)N(C)C1=O", "note": "[ARGIFIN]", "values": [
      {"measurement": "Kd", "value": 33, "unit": "µM"}
    ]}
  ]
}
